Assay results published in the NIST ThermoML archive (doi:10.1007/s10765-006-0093-7).

Details: Gas, Hot wire method

[Ar] [argon]
Details | thermal conductivity [W/m/K]
304.8 K, 1020 kPa | 0.01821
304.8 K, 1560 kPa | 0.01835
304.8 K, 2320 kPa | 0.01869
304.8 K, 2590 kPa | 0.01877
304.8 K, 4470 kPa | 0.01959
329 K, 1200 kPa | 0.0193
329 K, 1270 kPa | 0.01953
329 K, 1960 kPa | 0.01978
329 K, 2340 kPa | 0.01995
329 K, 3030 kPa | 0.02016
329 K, 3630 kPa | 0.0203
329 K, 5980 kPa | 0.02118
329 K, 7320 kPa | 0.02192
360.05 K, 1240 kPa | 0.02086
360.05 K, 1560 kPa | 0.02098
360.05 K, 1640 kPa | 0.02104
360.05 K, 2240 kPa | 0.02129
360.05 K, 3200 kPa | 0.02158
360.05 K, 4160 kPa | 0.02192
360.05 K, 8720 kPa | 0.0239
389.3 K, 1390 kPa | 0.02227
389.3 K, 2140 kPa | 0.02255
389.3 K, 2780 kPa | 0.02276
389.3 K, 3330 kPa | 0.02288
389.3 K, 3560 kPa | 0.02304
389.3 K, 4190 kPa | 0.02323
389.3 K, 5350 kPa | 0.02353
389.3 K, 6050 kPa | 0.02385
389.3 K, 6660 kPa | 0.02405
389.3 K, 7500 kPa | 0.0243
389.3 K, 8260 kPa | 0.02466
389.3 K, 8500 kPa | 0.02463
417.5 K, 1210 kPa | 0.02336
417.5 K, 1400 kPa | 0.02343
417.5 K, 2110 kPa | 0.02369
417.5 K, 2740 kPa | 0.02395
417.5 K, 3420 kPa | 0.02415
417.5 K, 4130 kPa | 0.02432
417.5 K, 4800 kPa | 0.02459
417.5 K, 5470 kPa | 0.02478
417.5 K, 6180 kPa | 0.02504
417.5 K, 6890 kPa | 0.02521
417.5 K, 7580 kPa | 0.0256
417.5 K, 8270 kPa | 0.02577
475.7 K, 1090 kPa | 0.02562
475.7 K, 1410 kPa | 0.02575
475.7 K, 2120 kPa | 0.02608
475.7 K, 2790 kPa | 0.02636
475.7 K, 3520 kPa | 0.02652
475.7 K, 4250 kPa | 0.02683
475.7 K, 5010 kPa | 0.02692
475.7 K, 6100 kPa | 0.02742
475.7 K, 7980 kPa | 0.02789
